Reference: patent publication US9988397B2, “ERK inhibitors” (Merck Sharp & Dohme Corp., priority 2014, dated 2018)

Each compound was assayed against phosphorylated active hERK2 enzyme (Homo sapiens, UniProt P28482) (assay: Active human ERK2 (hERK2) Activity Assay (IMAP-FP)). Conditions: 10 point titration, 3 μM starting concentration, 0.5 nM hERK2, 30 μM ATP, 60 minutes reaction.
Chain of phosphorylated active hERK2 enzyme (P28482 whole entry): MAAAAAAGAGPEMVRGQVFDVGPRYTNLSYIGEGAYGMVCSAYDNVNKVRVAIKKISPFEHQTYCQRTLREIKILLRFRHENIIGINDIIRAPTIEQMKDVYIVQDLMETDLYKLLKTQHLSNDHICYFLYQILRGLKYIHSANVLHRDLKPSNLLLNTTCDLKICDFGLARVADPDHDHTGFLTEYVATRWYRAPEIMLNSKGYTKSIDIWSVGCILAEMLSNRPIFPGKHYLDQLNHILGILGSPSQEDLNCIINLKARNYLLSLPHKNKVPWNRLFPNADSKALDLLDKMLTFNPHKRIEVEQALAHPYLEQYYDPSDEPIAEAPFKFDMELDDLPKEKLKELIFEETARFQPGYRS
Assay type: biochemical
Experimental: Activated ERK2 activity was determined in an IMAP-FP assay (Molecular Devices). Using this assay format, the potency (IC50) of each compound was determined from a 10 point (1:3 serial dilution, 3 μM starting compound concentration) titration curve using the following outlined procedure. […] Following a 15 minute compound & enzyme incubation, each reaction was initiated by the addition of 10 μL kinase buffer containing 2.45 μM ERK2 IMAP substrate peptides and 75 μM ATP. The final reaction in each well of 25 μL consists of 0.5 nM hERK2, 900 nM unlabeled peptide, 80 nM labeled-peptide, and 30 μM ATP. Phosphorylation reactions were allowed to proceed for 60 minutes and were immediately quenched by the addition of 60 μL IMAP detection beads (1:1000 dilutions) in IMAP binding buffer (Molecular Devices) with 24 mM NaCl. Plates were read on EnVision reader after 60 minutes binding equilibration using Fluorescence Polarization protocol (Perkin Elmer).
For CCn1ncc2cc3nc(c21)OCCC[C@](C)(O)[C@H](c1ccccc1)NC(=O)N3 [Example 27, (9S,10S)-1-Ethyl-10-hydroxy-10-methyl-9-phenyl-1,6,8,9,10,11,12,13-octahydro-7H-5,15-(azeno)pyrazolo[3,4-c][1,7,9]oxadiazacyclotetradecin-7-one], the IC50 was 148 nM. CCn1ncc2cc3nc(c21)NCCCCC(c1ccccc1)NC(=O)N3 (stereo not drawn) [Example 18, 1-Ethyl-9-phenyl-1,6,9,10,11,12,13,14-octahydro-5,15-(azeno)pyrazolo[4,3-f][1,3,9]triazacyclotetradecin-7(8H)-one] showed an IC50 of 15.7 nM. For CCn1ncc2cc3nc(c21)CCCO[C@@H]([C@@H](C)O)[C@@H](c1ccccc1)NC(=O)N3 [Example 47, (9R,10R)-1-Ethyl-10-[(1R)-1-hydroxyethyl]-9-phenyl-1,6,9,10,13,14-hexahydro-12H-5,15-(azeno)pyrazolo[4,3-i][1,4,6]oxadiazacyclotetradecin-7(8H)-one], the IC50 was 687 nM. Cn1ncc2cc3nc(c21)CCCCCC(c1ccccc1)NC(=O)N3 (stereo not drawn) [Example 30, 1-Methyl-9-phenyl-1,6,9,10,11,12,13,14-octahydro-5,15-(azeno)pyrazolo[4,3-f][1,3]diazacyclotetradecin-7(8H)-one] gave an IC50 of 230 nM. Compound CCn1ncc2cc3nc(c21)OCCC[C@H](O)[C@H](c1ccccc1)NC(=O)N3 [Example 25, (9S,10S)-1-Ethyl-10-hydroxy-9-phenyl-1,6,8,9,10,11,12,13-octahydro-7H-5,15-(azeno)pyrazolo[3,4-c][1,7,9]oxadiazacyclotetradecin-7-one] has an IC50 of 24.3 nM. CCn1ncc2cc3nc(c21)CCCO[C@H]([C@@H](C)O)[C@H](c1ccccc1)NC(=O)N3 [Example 45, (9 S,10 S)-1-Ethyl-10-[(1R)-1-hydroxyethyl]-9-phenyl-1,6,9,10,13,14-hexahydro-12H-5,15-(azeno)pyrazolo[4,3-i][1,4,6]oxadiazacyclotetradecin-7(8H)-one] showed an IC50 of 287 nM. CCn1ncc2cc3nc(c21)CCCO[C@@H]([C@H](C)O)[C@@H](c1ccccc1)NC(=O)N3 [Example 48, (9R,10R)-1-Ethyl-10-[(1S)-1-hydroxyethyl]-9-phenyl-1,6,9,10,13,14-hexahydro-12H-5,15-(azeno)pyrazolo[4,3-i][1,4,6]oxadiazacyclotetradecin-7(8H)-one] showed an IC50 of 4.11 nM. CCn1ncc2cc3nc(c21)OCCC[C@@](C)(O)[C@H](c1ccccc1)NC(=O)N3 [Example 28, (9S,10R)-1-Ethyl-10-hydroxy-10-methyl-9-phenyl-1,6,8,9,10,11,12,13-octahydro-7H-5,15-(azeno)pyrazolo[3,4-c][1,7,9]oxadiazacyclotetradecin-7-one] gave an IC50 of 144 nM. Work on Cn1ncc2cc3nc(c21)COCCCC(c1ccccc1)NC(=O)N3 (stereo not drawn) [Example 32, 1-Methyl-9-phenyl-1,6,9,10,11,12-hexahydro-5,15-(azeno)pyrazolo[4,3-k][1,6,8]oxadiazacyclotetradecin-7(8H,14H)-one] yielded an IC50 of 50.9 nM. CCn1ncc2cc3nc(c21)C[C@@H](O)COC[C@H](c1cccc(F)c1)NC(=O)N3 [Example 51, (9S,13R)-1-Ethyl-9-(3-fluorophenyl)-13-hydroxy-1,6,9,10,13,14-hexahydro-12H-5,15-(azeno)pyrazolo[4,3-i][1,4,6]oxadiazacyclotetradecin-7(8H)-one] was tested, and the IC50 was 3.91 nM. CCn1ncc2cc3nc(c21)CCCO[C@H]([C@H](C)O)[C@H](c1ccccc1)NC(=O)N3 [Example 46, (9 S,10 S)-1-Ethyl-10-[(1 S)-1-hydroxyethyl]-9-phenyl-1,6,9,10,13,14-hexahydro-12H-5,15-(azeno)pyrazolo[4,3-i][1,4,6]oxadiazacyclotetradecin-7(8H)-one] showed an IC50 of 48.4 nM. For CCn1ncc2cc3nc(c21)C[C@H](O)COC[C@H](c1ccc(OC)c(F)c1)NC(=O)N3 [Example 50, (9S,13S)-1-Ethyl-9-(3-fluoro-4-methoxyphenyl)-13-hydroxy-1,6,9,10,13,14-hexahydro-12H-5,15-(azeno)pyrazolo[4,3-i][1,4,6]oxadiazacyclotetradecin-7(8H)-one], the IC50 was 6.28 nM. CCn1ncc2cc3nc(c21)OCCCCC(c1ccccc1)NC(=O)N3 (stereo not drawn) [Example 16, 1-Ethyl-9-phenyl-1,6,8,9,10,11,12,13-octahydro-7H-5,15-(azeno)pyrazolo [3,4-c][1,7,9]oxadiazacyclotetradecin-7-one] showed an IC50 of 85.4 nM. Work on CCn1ncc2cc3nc(c21)CCCOC[C@H](c1ccccc1)NC(=O)N3 [Example 1, (9S)-1-Ethyl-9-phenyl-1,6,9,10,13,14-hexahydro-12H-5,15-(azeno)pyrazolo[4,3-i][1,4,6]oxadiazacyclotetradecin-7(8H)-one] yielded an IC50 of 8.79 nM. CCn1ncc2cc3nc(c21)CC(CO)COC[C@H](c1ccccc1)NC(=O)N3 (stereo partly drawn) [Example 58, (9 S)-1-ethyl-13-(hydroxymethyl)-9-phenyl-1,6,9,10,13,14-hexahydro-12H-5,15-(azeno)pyrazolo[4,3-i][1,4,6]oxadiazacyclotetradecin-7(8H)-one] was tested, and the IC50 was 5.09 nM. For CCn1ncc2cc3nc(c21)C[C@@H](O)COC[C@H](c1cccc(Cl)c1)NC(=O)N3 [Example 55, (9S,13R)-9-(3-chlorophenyl)-1-ethyl-13-hydroxy-1,6,9,10,13,14-hexahydro-12H-5,15-(azeno)pyrazolo[4,3-i][1,4,6]oxadiazacyclotetradecin-7(8H)-one], the IC50 was 3.83 nM. For CCn1ncc2cc3nc(c21)CCCOC(C)(C)[C@@H](c1ccccc1)NC(=O)N3 [Example 12, (9R)-1-Ethyl-10,10-dimethyl-9-phenyl-1,6,9,10,13,14-hexahydro-12H-5,15-(azeno)pyrazolo[4,3-i][1,4,6]oxadiazacyclotetradecin-7(8H)-one], the IC50 was 734 nM. Work on Cn1ncc2cc3nc(c21)Cn1cc(nn1)CC(c1ccccc1)NC(=O)N3 (stereo not drawn) [Example 34, 1-methyl-9-phenyl-1,6,9,10-tetrahydro-5,16-(azeno)-14,11-(metheno)pyrazolo[4,3-l][1,2,3,7,9]pentaazacyclopentadecin-7(8H,15H)-one] yielded an IC50 of 89.9 nM. CN1CCCCC(c2ccccc2)NC(=O)Nc2cc3cnn(C)c3c1n2 (stereo not drawn) [Example 20, 1,14-Dimethyl-9-phenyl-1,6,9,10,11,12,13,14-octahydro-5,15-(azeno)pyrazolo[4,3-f][1,3,9]triazacyclotetradecin-7(8H)-one] showed an IC50 of 85.7 nM. For CCn1ncc2cc3nc(c21)C[C@@H](O)COC[C@H](c1ccc(OC)c(F)c1)NC(=O)N3 [Example 49, (9S,13R)-1-Ethyl-9-(3-fluoro-4-methoxyphenyl)-13-hydroxy-1,6,9,10,13,14-hexahydro-12H-5,15-(azeno)pyrazolo[4,3-i][1,4,6]oxadiazacyclotetradecin-7(8H)-one], the IC50 was 3.4 nM. COCCn1ncc2cc3nc(c21)Cn1cc(nn1)CC(c1ccccc1)NC(=O)N3 (stereo not drawn) [Example 36, 1-(2-Methoxyethyl)-9-phenyl-1,6,9,10-tetrahydro-5,16-(azeno)-14,11-(metheno)pyrazolo[4,3-l][1,2,3,7,9]pentaazacyclopentadecin-7(8H,15H)-one] showed an IC50 of 416 nM. Work on CCn1ncc2cc3nc(c21)C[C@@H](O)COC[C@H](c1ccc(Cl)c(F)c1)NC(=O)N3 [Example 53, (9S,13R)-1-Ethyl-9-(4-chloro-3-fluorophenyl)-13-hydroxy-1,6,9,10,13,14-hexahydro-12H-5,15-(azeno)pyrazolo[4,3-i][1,4,6]oxadiazacyclotetradecin-7(8H)-one] yielded an IC50 of 3.91 nM. CCn1ncc2cc3nc(c21)C[C@@H](OC)COC[C@@H](c1ccccc1)NC(=O)N3 (stereo in doubt) [Example 44, (9R,13R)-1-Ethyl-13-methoxy-9-phenyl-1,6,9,10,13,14-hexahydro-12H-5,15-(azeno)pyrazolo[4,3-i][1,4,6]oxadiazacyclotetradecin-7(8H)-one] gave an IC50 of 32.8 nM. Compound C=C1COC[C@H](c2ccccc2)NC(=O)Nc2cc3cnn(CC)c3c(n2)C1 [Example 57, (9 S)-1-ethyl-13-methylidene-9-phenyl-1,6,9,10,13,14-hexahydro-12H-5,15-(azeno)pyrazolo[4,3-i][1,4,6]oxadiazacyclotetradecin-7(8H)-one] has an IC50 of 5.17 nM.
